Test results published in the CheMixHub drug solubility set.

Experiment: xn = mol fraction of the nth substance listed, in the solute-free solvent

CC(S)C(=O)NCC(=O)O (stereo unspecified) + CC(C)CO + CC#N
solubility (g/100 g solution)
Conditions | 273.15 K | 278.15 K | 283.15 K | 288.15 K | 293.15 K | 298.15 K | 303.15 K | 308.15 K | 313.15 K | 318.15 K
x2 = 0.1216 | 3.99 | 4.43 | 4.93 | 5.48 | 6.05 | 6.7 | 7.36 | 8.06 | 8.81 | 9.64
x2 = 0.2697 | 4.62 | 5.31 | 6.02 | 6.81 | 7.59 | 8.41 | 9.25 | 10.1 | 11.2 | 12.4
x2 = 0.4538 | 7.02 | 7.59 | 8.23 | 8.89 | 9.58 | 10.4 | 11.1 | 12 | 13 | 13.9
x2 = 0.689 | 4.17 | 4.7 | 5.22 | 5.84 | 6.48 | 7.14 | 7.88 | 8.69 | 9.56 | 10.5

O=C(NC(C(=O)O)c1ccccc1)OCc1ccccc1 (stereo unspecified) + CCO + O
solubility (g/100 g solution)
Conditions | x2 = 0.1 | x2 = 0.2 | x2 = 0.3 | x2 = 0.4 | x2 = 0.5 | x2 = 0.6 | x2 = 0.7 | x2 = 0.8 | x2 = 0.9
283.15 K | 0.0534 | 0.628 | 1.49 | 2.83 | 4.36 | 6.29 | 8.19 | 11.1 | 11.8
293.15 K | 0.0958 | 0.786 | 2.21 | 4.37 | 6.76 | 9.75 | 13.4 | 17.7 | 18.1
303.15 K | 0.153 | 1.18 | 3.44 | 7.93 | 12.3 | 17.6 | 21.9 | 26.9 | 27.3
313.15 K | 0.239 | 1.91 | 6.85 | 13.9 | 22.6 | 29.6 | 35.5 | 39.3 | 40.2
323.15 K | 0.396 | 3.17 | 12.7 | 24 | 37.5 | 45.5 | 49.1 | 51.8 | 52.6

c1ccc(-c2ccc(C(c3ccccc3)n3ccnc3)cc2)cc1 (stereo unspecified) + CC(C)O + O
solubility (g/100 g solution)
Conditions | 278.15 K | 283.15 K | 288.15 K | 293.15 K | 298.15 K | 303.15 K | 308.15 K | 313.15 K | 318.15 K
x2 = 0.03225 | 0.0342 | 0.0473 | 0.0644 | 0.0851 | 0.103 | 0.142 | 0.189 | 0.234 | 0.294
x2 = 0.06974 | 0.0839 | 0.115 | 0.155 | 0.204 | 0.247 | 0.338 | 0.444 | 0.549 | 0.687
x2 = 0.1139 | 0.17 | 0.232 | 0.31 | 0.408 | 0.497 | 0.673 | 0.876 | 1.09 | 1.35
x2 = 0.1666 | 0.29 | 0.394 | 0.525 | 0.692 | 0.849 | 1.14 | 1.48 | 1.84 | 2.29
x2 = 0.2307 | 0.426 | 0.578 | 0.767 | 1.05 | 1.37 | 1.77 | 2.24 | 2.81 | 3.38
x2 = 0.3103 | 0.547 | 0.744 | 0.987 | 1.32 | 1.65 | 2.2 | 2.83 | 3.56 | 4.43
x2 = 0.4117 | 0.629 | 0.928 | 1.26 | 1.69 | 2.19 | 2.73 | 3.34 | 4.23 | 5.29
x2 = 0.5454 | 0.662 | 0.935 | 1.36 | 1.8 | 2.39 | 2.97 | 3.63 | 4.64 | 5.84
x2 = 0.7297 | 0.651 | 0.899 | 1.25 | 1.75 | 2.25 | 2.98 | 3.86 | 4.96 | 6.12
